# Measurements from patent US11072624B2, “Synthesis of nucleoside 5′-triphosphates and their derivatives” (priority 2010, dated 2021).
# Target: T1, Klenow fragment exo(−), Kf- (Escherichia coli, UniProt P00582, D355A/E357A)
# T1 construct: into DNA by Klenow fragment exo(−), Kf-
# Assay: Primer extension reaction of chemically synthesized dNTPs into DNA by Klenow polymerase
# Type: biochemical
# Settings: single test dNTP plus the three other standard dNTPs (lanes 4, 6, 8, 10); 0.1 mM dNTPs, 37° C., 1 h, 19% PAGE
# Procedure: Primer, P was end labeled using polynucleotide kinase and [γ-^32P] ATP. Polymerization reactions were performed with 3.5 μM primer and 5 μM template and equimolar ratios of all dNTPs (0.1 mM) and incubated with 0.05 […] at 37° C. for 1 h. Reaction was analyzed by 19% polyacrylamide gel electrophoresis. Lane 1: primer, P and all dNTPs but no Kf-; lane 2: P plus template, T and all dNTPs (Epicentre, Inc.) with Kf-; lane 3: P/T and all dNTPs except dATP with Kf-; lane 4: P/T and test dATP, dCTP, dGTP, and TTP with Kf-; lane 5: P/T and all dNTPs except dCTP with Kf-; lane 6: P/T and dATP, test dCTP, dGTP and TTP with Kf-; lane 7: P/T and all dNTPs except dGTP with Kf-; lane 8: P/T and dATP, dCTP, test dGTP and TTP with Kf-; lane 9: P/T and all dNTPs except TTP with Kf-; lane 10: P/T and dATP, dCTP, dGTP and test TTP with Kf-; lane 11: P/T and all test dNTPs with Kf-; lane 12: primer, P.
# For the polymerase extension reaction, the primer (SEQ ID NO: 1; P: 5′-d-GCGTAATACGACTCACTATAG-3′) was radiolabeled with [γ-^32P] ATP at the 5′-position and incubated with the template (SEQ ID NO: 2; 3′-d-[…]-5′) to allow examination of a test nucleotide (dATP, dCTP, dGTP or TTP), see FIG. 3. The polymerase reaction was conducted in the presence of the Klenow polymerase (0.05 U/μL). […] More convincingly, in a reaction containing each of the test triphosphates (lane 11), full-length product (SEQ ID NO: 3) similar to the standard polymerization reaction (lane 2) was observed.
# T1 sequence (P00582 324-928 D355A/E357A): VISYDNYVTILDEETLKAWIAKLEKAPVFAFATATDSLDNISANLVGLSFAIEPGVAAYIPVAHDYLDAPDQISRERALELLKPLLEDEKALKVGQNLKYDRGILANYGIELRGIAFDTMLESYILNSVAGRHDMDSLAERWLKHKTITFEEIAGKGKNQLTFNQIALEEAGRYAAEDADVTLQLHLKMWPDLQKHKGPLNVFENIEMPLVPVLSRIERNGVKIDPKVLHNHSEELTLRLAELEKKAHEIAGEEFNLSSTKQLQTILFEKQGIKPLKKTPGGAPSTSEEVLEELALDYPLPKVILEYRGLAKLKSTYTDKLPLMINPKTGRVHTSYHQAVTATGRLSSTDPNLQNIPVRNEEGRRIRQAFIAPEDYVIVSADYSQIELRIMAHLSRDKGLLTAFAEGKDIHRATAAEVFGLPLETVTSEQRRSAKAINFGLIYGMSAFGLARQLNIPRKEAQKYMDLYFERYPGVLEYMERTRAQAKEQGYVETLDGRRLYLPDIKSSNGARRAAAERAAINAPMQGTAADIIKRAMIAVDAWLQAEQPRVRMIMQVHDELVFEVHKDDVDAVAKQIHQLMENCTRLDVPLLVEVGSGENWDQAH
row,Compound,primer extension to the expected full-length (test dNTP as substrate for the Klenow polymerase)
1,Nc1nc2c(ncn2[C@H]2C[C@H](O)[C@@H](COP(=O)(O)OP(=O)(O)OP(=O)(O)O)O2)c(=O)[nH]1 [dGTP],efficiently extended the primer
2,Nc1ccn([C@H]2C[C@H](O)[C@@H](COP(=O)(O)OP(=O)(O)OP(=O)(O)O)O2)c(=O)n1 [dCTP],efficiently extended the primer
3,Nc1ncnc2c1ncn2[C@H]1C[C@H](O)[C@@H](COP(=O)(O)OP(=O)(O)OP(=O)(O)O)O1 [dATP],efficiently extended the primer
4,Cc1cn([C@H]2C[C@H](O)[C@@H](COP(=O)(O)OP(=O)(O)OP(=O)(O)O)O2)c(=O)[nH]c1=O [TTP],efficiently extended the primer
